Reference: ChEMBL document CHEMBL1131172 (J Med Chem, 1998)
One block for each compound: values may come before it.

Columns and labels:
[1] = molecular target: T1, Dihydrofolate reductase (Pneumocystis carinii, UniProt P16184)
T1 sequence (P16184 whole entry): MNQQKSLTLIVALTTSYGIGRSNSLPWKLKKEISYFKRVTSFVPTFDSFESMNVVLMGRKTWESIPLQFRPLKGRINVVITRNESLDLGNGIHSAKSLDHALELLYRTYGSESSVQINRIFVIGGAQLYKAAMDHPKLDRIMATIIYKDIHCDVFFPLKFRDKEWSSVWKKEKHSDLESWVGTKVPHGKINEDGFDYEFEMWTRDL
Description: Inhibitory activity against dihydrofolate reductase (DHFR) from Pneumocystis carinii

[2] = molecular target: T2, Bifunctional dihydrofolate reductase-thymidylate synthase (Toxoplasma gondii, UniProt Q07422)
T2 sequence (Q07422 whole entry): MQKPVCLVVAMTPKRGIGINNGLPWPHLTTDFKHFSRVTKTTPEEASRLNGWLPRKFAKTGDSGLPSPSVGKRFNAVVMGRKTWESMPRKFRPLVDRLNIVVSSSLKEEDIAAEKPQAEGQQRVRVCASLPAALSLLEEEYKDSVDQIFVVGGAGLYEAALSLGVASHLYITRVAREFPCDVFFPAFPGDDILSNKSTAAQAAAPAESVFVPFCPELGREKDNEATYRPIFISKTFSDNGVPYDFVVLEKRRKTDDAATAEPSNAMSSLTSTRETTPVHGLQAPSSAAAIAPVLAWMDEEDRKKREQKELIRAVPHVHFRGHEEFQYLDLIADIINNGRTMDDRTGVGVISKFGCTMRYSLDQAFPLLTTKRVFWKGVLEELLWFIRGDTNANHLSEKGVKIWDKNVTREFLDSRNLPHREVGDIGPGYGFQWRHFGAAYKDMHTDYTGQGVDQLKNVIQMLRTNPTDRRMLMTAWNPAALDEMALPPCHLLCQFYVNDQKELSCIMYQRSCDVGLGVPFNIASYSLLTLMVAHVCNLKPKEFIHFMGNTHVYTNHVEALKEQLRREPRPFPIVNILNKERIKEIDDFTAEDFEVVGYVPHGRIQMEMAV
Description: Inhibitory activity against dihydrofolate reductase (DHFR) from Toxoplasma gondii

[3] = molecular target: T3, Dihydrofolate reductase (Rattus norvegicus, UniProt Q920D2)
T3 sequence (Q920D2 whole entry): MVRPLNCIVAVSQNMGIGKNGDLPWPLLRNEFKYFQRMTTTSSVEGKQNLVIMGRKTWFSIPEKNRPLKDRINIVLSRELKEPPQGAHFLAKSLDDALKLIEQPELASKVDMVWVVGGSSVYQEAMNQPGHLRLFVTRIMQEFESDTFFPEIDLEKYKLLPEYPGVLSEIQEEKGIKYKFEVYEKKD
Description: Inhibitory activity against dihydrofolate reductase (DHFR) from rat liver

[4] = tested on: MOLT-4; test: inhibition of the growth of leukemia (MOLT-4) cell line; format: functional; settings: Homo sapiens
[5] = tested on: HCT-15; test: inhibition of the growth of colon cancer(HCT-15) cell line; format: functional; settings: Homo sapiens
[6] = tested on: DU-145; test: inhibition of the growth of prostate cancer(DU-145) cell line; format: functional; settings: Homo sapiens
[7] = tested on: NCI/ADR-RES; test: inhibition of the growth of breast cancer (MCF7/ADR-RES) cell line; format: functional; settings: Homo sapiens
[8] = tested on: NCI-H322M; test: inhibition of the growth of non-small-cell lung cancer (NCI-H322M) cell line; format: functional; settings: Homo sapiens
[9] = tested on: NCI-H23; test: inhibition of the growth of non-small-cell lung cancer (NCI-H23) cell line; format: functional; settings: Homo sapiens
[10] = tested on: OVCAR-8; test: inhibition of the growth of ovarian cancer(OVCAR-8) cell line; format: functional; settings: Homo sapiens
[11] = tested on: CAKI-1; test: inhibition of the growth of renal cancer(CAKI-1) cell line; format: functional; settings: Homo sapiens
[12] = tested on: RPMI-8226; test: inhibition of the growth of leukemia (RPMI-8226) cell line; format: functional; settings: Homo sapiens
[13] = tested on: UO-31; test: inhibition of the growth of renal cancer(UO-31) cell line; format: functional; settings: Homo sapiens
[14] = tested on: SF-539; test: inhibition of the growth of CNS cancer(SF-539) cell line; format: functional; settings: Homo sapiens
[15] = tested on: M14; test: inhibition of the growth of melanoma cancer (M14) cell line; format: functional; settings: Homo sapiens
[16] = tested on: SNB-19; test: inhibition of the growth of CNS cancer(SNB-19) cell line; format: functional; settings: Homo sapiens
[17] = tested on: UO-31; test: Inhibition of the growth of renal cancer(UO-31) cell line at 0.01 uM; format: functional; settings: Homo sapiens
[18] = tested on: SF-295; test: inhibition of the growth of CNS cancer(SF-295) cell line; format: functional; settings: Homo sapiens
[19] = tested on: 786-0; test: inhibition of the growth of renal cancer(786-0) cell line; format: functional; settings: Homo sapiens
[20] = tested on: NCI-H460; test: inhibition of the growth of non-small-cell lung cancer (NCI-H460) cell line; format: functional; settings: Homo sapiens
[21] = tested on: HCT-116; test: inhibition of the growth of colon cancer(HCT116) cell line; format: functional; settings: Homo sapiens
[22] = tested on: IGROV-1; test: inhibition of the growth of ovarian cancer(IGROVI) cell line; format: functional; settings: Homo sapiens
[23] = tested on: MDA-N; test: inhibition of the growth of breast cancer(MDA-N) cell line; format: functional; settings: Homo sapiens
[24] = tested on: SK-MEL-5; test: inhibition of the growth of melanoma cancer (SK-MEL-5) cell line; format: functional; settings: Homo sapiens
[25] = tested on: SR; test: inhibition of the growth of leukemia(SR) cell line; format: functional; settings: Homo sapiens
[26] = tested on: KM12; test: inhibition of the growth of colon cancer(KM-12) cell line; format: functional; settings: Homo sapiens
[27] = tested on: A549; test: inhibition of the growth of non-small-cell lung cancer (A549/ATCC) cell line; format: functional; settings: Homo sapiens
[28] = tested on: MCF7; test: inhibition of the growth of breast cancer (MCF-7) cell line; format: functional; settings: Homo sapiens
[29] = tested on: NCI-H522; test: inhibition of the growth of non-small-cell lung cancer (NCI-H522) cell line; format: functional; settings: Homo sapiens
[30] = tested on: SF-268; test: inhibition of the growth of CNS cancer(SF-268) cell line; format: functional; settings: Homo sapiens
[31] = tested on: MDA-MB-435; test: inhibition of the growth of breast cancer (MDA-MB-435) cell line; format: functional; settings: Homo sapiens
[32] = tested on: A549; test: Inhibition of the growth of non-small-cell lung cancer (A549/ATCC) cell line at 0.01 uM; format: functional; settings: Homo sapiens
[33] = tested on: RPMI-8226; test: Inhibition of the growth of leukemia (RPMI-8226) cell line at 0.01 uM; format: functional; settings: Homo sapiens
[34] = tested on: NCI/ADR-RES; test: Inhibition of the growth of breast cancer (MCF7/ADR-RES) cell line at 0.01 uM; format: functional; settings: Homo sapiens
[35] = tested on: MDA-MB-435; test: Inhibition of the growth of breast cancer (MDA-MB-435) cell line at 0.01 uM; format: functional; settings: Homo sapiens
[36] = tested on: HCT-15; test: Inhibition of the growth of colon cancer(HCT-15) cell line at 0.01 uM; format: functional; settings: Homo sapiens
[37] = tested on: OVCAR-8; test: Inhibition of the growth of ovarian cancer(OVCAR-8) cell line at 0.01 uM; format: functional; settings: Homo sapiens
[38] = tested on: SK-MEL-5; test: Inhibition of the growth of melanoma cancer (SK-MEL-5) cell line at 0.01 uM; format: functional; settings: Homo sapiens
[39] = tested on: NCI-H460; test: Inhibition of the growth of non-small-cell lung cancer (NCI-H460) cell line at 0.01 uM; format: functional; settings: Homo sapiens
[40] = tested on: SF-295; test: Inhibition of the growth of CNS cancer(SF-295) cell line at 0.01 uM; format: functional; settings: Homo sapiens
[41] = tested on: MDA-N; test: Inhibition of the growth of breast cancer(MDA-N) cell line at 0.01 uM; format: functional; settings: Homo sapiens
[42] = tested on: IGROV-1; test: Inhibition of the growth of ovarian cancer(IGROVI) cell line at 0.01 uM; format: functional; settings: Homo sapiens
[43] = tested on: HCT-116; test: Inhibition of the growth of colon cancer(HCT116) cell line at 0.01 uM; format: functional; settings: Homo sapiens

SMILES: COc1ccc(Nc2ccc3nc(N)nc(N)c3n2)cc1OC
IC50 [1]: 40400 nM | IC50 [2]: 680 nM | IC50 [3]: 1100 nM

SMILES: COc1cc(Nc2ccc3nc(N)nc(N)c3n2)cc(OC)c1OC
IC50 [1]: 25900 nM | IC50 [2]: 2400 nM | IC50 [3]: 3200 nM

SMILES: Nc1nc(N)c2nc(Nc3ccccc3)ccc2n1
GI50 [4]: 2180 nM | GI50 [5]: 850 nM | GI50 [6]: 4990 nM | GI50 [7]: 2690 nM | GI50 [8]: 8020 nM | GI50 [9]: 3670 nM | GI50 [10]: 990 nM | GI50 [11]: 3580 nM | GI50 [12]: 670 nM | IC50 [1]: 8300 nM | GI50 [13]: < 10 nM | GI50 [14]: 2950 nM | GI50 [15]: 1070 nM | GI50 [16]: 1570 nM | inhibition at 0.01 µM [17]: 57% | GI50 [18]: 1430 nM | GI50 [19]: 890 nM | GI50 [20]: 430 nM | GI50 [21]: 510 nM | GI50 [22]: 3270 nM | GI50 [23]: 680 nM | IC50 [2]: 300 nM | GI50 [24]: 830 nM | GI50 [25]: 2910 nM | GI50 [26]: 5940 nM | GI50 [27]: 640 nM | IC50 [3]: 430 nM | GI50 [28]: 6450 nM | GI50 [29]: 4260 nM | GI50 [30]: 6050 nM | GI50 [31]: 570 nM

SMILES: CN(c1ccc2nc(N)nc(N)c2n1)c1cccc2ccccc12
IC50 [2]: 2100 nM | IC50 [3]: 3300 nM

SMILES: COc1ccc(Sc2ccc3nc(N)nc(N)c3n2)cc1OC
IC50 [1]: 86 nM | IC50 [2]: 19 nM | IC50 [3]: 18 nM

SMILES: CN(c1ccccc1)c1ccc2nc(N)nc(N)c2n1
GI50 [4]: 60 nM | GI50 [5]: < 10 nM | inhibition at 0.01 µM [32]: 65% | GI50 [6]: 120 nM | GI50 [7]: < 10 nM | inhibition at 0.01 µM [33]: 59% | inhibition at 0.01 µM [34]: 83% | inhibition at 0.01 µM [35]: 73% | inhibition at 0.01 µM [36]: 66% | GI50 [8]: 70 nM | inhibition at 0.01 µM [37]: 91% | GI50 [9]: 30 nM | inhibition at 0.01 µM [38]: 59% | GI50 [10]: < 10 nM | inhibition at 0.01 µM [39]: 80% | GI50 [11]: 10 nM | GI50 [12]: < 10 nM | inhibition at 0.01 µM [40]: 59% | IC50 [1]: 99.5 nM | GI50 [13]: 30 nM | GI50 [14]: < 10 nM | GI50 [15]: 10 nM | GI50 [16]: 40 nM | GI50 [18]: < 10 nM | GI50 [19]: 220 nM | GI50 [20]: < 10 nM | GI50 [21]: < 10 nM | GI50 [22]: < 10 nM | GI50 [23]: < 10 nM | IC50 [2]: 2.2 nM | GI50 [24]: < 10 nM | GI50 [25]: 50 nM | GI50 [26]: 190 nM | GI50 [27]: < 10 nM | IC50 [3]: 1.3 nM | GI50 [28]: 140 nM | GI50 [29]: 60 nM | inhibition at 0.01 µM [41]: 68% | inhibition at 0.01 µM [42]: 53% | GI50 [30]: 10 nM | inhibition at 0.01 µM [43]: 80% | GI50 [31]: < 10 nM

More lines, main results first:

IC50 [3]: 820 nM
SMILES: Nc1nc(N)c2nc(Nc3ccc(Cl)cc3)ccc2n1
IC50 [2]: 830 nM

IC50 [1]: 700 nM | IC50 [3]: 75 nM
SMILES: COc1ccc(Sc2ccc3nc(N)nc(N)c3n2)cc1
IC50 [2]: 45 nM

IC50 [1]: 90400 nM | IC50 [3]: 3800 nM
SMILES: COc1ccc(Nc2ccc3nc(N)nc(N)c3n2)cc1
IC50 [2]: 2800 nM
